These results are taken from patent US9433621B2, “Substituted pyridine and pyrimidine derivatives and their use in treating viral infections” (Merck Sharp & Dohme Corp., priority 2010, dated 2016).

What is called EC90 is the concentration needed for an effect of 90%.

The assay relates to HCV replicon. As to the kind of experiment: Cell-Based HCV Replicon Assay. The conditions noted are these: Hepatitis C virus, HCV Replicon assay, Table VI, read-out: EC90. The procedure, abridged: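 EC50 and EC90 taken from sigmoid fits of ΔCT (5B minus GAPDH) as the concentrations raising ΔCT by 1 and 3.2 over baseline, via multiplex real-time RT-PCR on lysates after 3 days. Replicon cells at 5000/well; 10 two-fold dilutions from 25–1 μM, 0.5% DMSO, 10% FBS.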
(Replicon systems follow genome replication, usually without infectious particles.)

Where two headings read alike, the source gives them in different places.

On to `Cc1nc(NCC2(O)CC2)nc(N[C@H]2C=C[C@@H](CO)C2)c1-c1nc2c(C)nccc2s1` [Example 5170], for which, under “EC90 range”, the EC90 is less than 500 nM.

As for `CO[C@H](C)CN(C)c1nc(C)c(-c2nc3c(C)nccc3s2)c(N[C@@H]2C[C@H](C(C)(C)O)[C@@H](O)[C@H]2O)n1` [Example 5171], the EC90 (EC90 given as numeric bound) was greater than 1000 nM.

In the case of `Cc1nc(N[C@H](C)C2CC2)nc(N[C@@H]2C[C@H](C(C)(F)F)[C@@H](O)[C@H]2O)c1-c1nc2c(C3CC3)nccc2s1` [Example 5172], for the setting “EC90 range”, the EC90 is less than 500 nM.

In the case of `Cc1nc(NC2CC2)nc(N[C@@H]2C[C@H](C(C)(F)F)[C@@H](O)[C@H]2O)c1-c1nc2c(C3CC3)nccc2s1` [Example 5173], under “EC90 range”, the EC90 was less than 500 nM.

Turning to `CCCNc1nc(C)c(-c2nc3c(C4CC4)nccc3s2)c(N[C@@H]2C[C@H](C(C)(F)F)[C@@H](O)[C@H]2O)n1` [Example 5174], the EC90 (EC90 range) is less than 500 nM.

Regarding `Cc1nc(NCC(C)C)nc(N[C@@H]2C[C@H](C(C)(F)F)[C@@H](O)[C@H]2O)c1-c1nc2c(C3CC3)nccc2s1` [Example 5175], the EC90 (EC90 range) is less than 500 nM.

For `Cc1nc(NCC(C)(C)C)nc(N[C@@H]2C[C@H](C(C)(F)F)[C@@H](O)[C@H]2O)c1-c1nc2c(C3CC3)nccc2s1` [Example 5176], the concentration for an effect of 90% (EC90) (EC90 range) is less than 500 nM.

In the case of `Cc1nc(NCC2CC(F)(F)C2)nc(N[C@@H]2C[C@H](C(C)(F)F)[C@@H](O)[C@H]2O)c1-c1nc2c(C3CC3)nccc2s1` [Example 5177], the EC90 (EC90 range) is less than 500 nM.

On to `Cc1nc(NC2CC2)nc(N[C@@H]2C[C@H](C(F)F)[C@@H](O)[C@H]2O)c1-c1nc2c(C3CC3)nccc2s1` [Example 5178], for which the EC90 (EC90 range) was less than 500 nM.

Turning to `CCCNc1nc(C)c(-c2nc3c(C4CC4)nccc3s2)c(N[C@@H]2C[C@H](C(F)F)[C@@H](O)[C@H]2O)n1` [Example 5179], the EC90 (EC90 range) was less than 500 nM.

`Cc1nc(NCC(C)C)nc(N[C@@H]2C[C@H](C(F)F)[C@@H](O)[C@H]2O)c1-c1nc2c(C3CC3)nccc2s1` [Example 5180]: the EC90 (EC90 range) is less than 500 nM.

`Cc1nc(NCC(C)(C)C)nc(N[C@@H]2C[C@H](C(F)F)[C@@H](O)[C@H]2O)c1-c1nc2c(C3CC3)nccc2s1` [Example 5181]: the EC90 (EC90 range) is less than 500 nM.

In the case of `Cc1nc(NCC2CC(F)(F)C2)nc(N[C@@H]2C[C@H](C(F)F)[C@@H](O)[C@H]2O)c1-c1nc2c(C3CC3)nccc2s1` [Example 5182], the EC90 (EC90 range) is less than 500 nM.

In the case of `Cc1nc(NCC2CCC2)nc(N[C@@H]2C[C@H](C(C)(F)F)[C@@H](O)[C@H]2O)c1-c1nc2c(C3CC3)nccc2s1` [Example 5183], for the setting “EC90 range”, the EC90 is less than 500 nM.

Regarding `Cc1nc(N[C@H](C)C2CCC2)nc(N[C@@H]2C[C@H](C(C)(F)F)[C@@H](O)[C@H]2O)c1-c1nc2c(C3CC3)nccc2s1` [Example 5184], the EC90 (EC90 range) was less than 500 nM.

Turning to `Cc1nc(NCC2CCC2)nc(N[C@@H]2C[C@H](C(F)F)[C@@H](O)[C@H]2O)c1-c1nc2c(C3CC3)nccc2s1` [Example 5185], the 90% effect concentration (EC90) (EC90 range) was less than 500 nM.

Turning to `Cc1nc(N[C@H](C)C2CCC2)nc(N[C@@H]2C[C@H](C(F)F)[C@@H](O)[C@H]2O)c1-c1nc2c(C3CC3)nccc2s1` [Example 5186], where the note is “EC90 range”, the EC90 is less than 500 nM.

For the compound `COc1nc(C)c(-c2nc3c(C4CC4)nccc3s2)c(N[C@@H]2C[C@H](C(C)(F)F)[C@@H](O)[C@H]2O)n1` [Example 5187], the EC90 (EC90 range) is 5000 to 25000 nM.

`Cc1nc(N)nc(N[C@@H]2C[C@H](C(C)(F)F)[C@@H](O)[C@H]2O)c1-c1nc2c(C3CC3)nccc2s1` [Example 5188]: the EC90 (EC90 range) is less than 500 nM.

For `C#CCCNc1nc(C)c(-c2nc3c(C4CC4)nccc3s2)c(N[C@@H]2C[C@H](C(C)(F)F)[C@@H](O)[C@H]2O)n1` [Example 5189], the EC90 (EC90 range) was less than 500 nM.

Turning to `Cc1nc(N)nc(N[C@@H]2C[C@H](C(F)F)[C@@H](O)[C@H]2O)c1-c1nc2c(C3CC3)nccc2s1` [Example 5190], where the note is “EC90 range”, the EC90 was less than 500 nM.

Turning to `Cc1nc(NCC2(C)CC2)nc(N[C@@H]2C[C@H](C(F)F)[C@@H](O)[C@H]2O)c1-c1nc2c(C3CC3)nccc2s1` [Example 5191], the EC90 (EC90 range) was less than 500 nM.

Consider `Cc1nc(NCCC2CC2)nc(N[C@@H]2C[C@H](C(F)F)[C@@H](O)[C@H]2O)c1-c1nc2c(C3CC3)nccc2s1` [Example 5192], for which the EC90 (EC90 range) is less than 500 nM.

Turning to `Cc1nc(NCCC(C)C)nc(N[C@@H]2C[C@H](C(F)F)[C@@H](O)[C@H]2O)c1-c1nc2c(C3CC3)nccc2s1` [Example 5193], where the note is “EC90 range”, the EC90 was less than 500 nM.

Take `CSCCNc1nc(C)c(-c2nc3c(C4CC4)nccc3s2)c(N[C@@H]2C[C@H](C(F)F)[C@@H](O)[C@H]2O)n1` [Example 5194]: the EC90 (EC90 range) is less than 500 nM.

Turning to `COC1(CNc2nc(C)c(-c3nc4c(C)nccc4s3)c(N[C@@H]3C[C@H](C(C)(C)O)[C@@H](O)[C@H]3O)n2)CCCCC1` [Example 5195], the EC90 (EC90 range) was less than 500 nM.

With `CCC(CNc1nc(C)c(-c2nc3c(C)nccc3s2)c(N[C@@H]2C[C@H](C(C)(C)O)[C@@H](O)[C@H]2O)n1)OC` (stereo partly shown) [Example 5196], the EC90 (EC90 range) was less than 500 nM.

For the compound `Cc1nc(NC2(CS(=O)(=O)C(C)(C)C)CCCCC2)nc(N[C@@H]2C[C@H](C(C)(C)O)[C@@H](O)[C@H]2O)c1-c1nc2c(C)nccc2s1` [Example 5197], for the setting “EC90 given as numeric bound”, the EC90 is greater than 1000 nM.

As to `COCC1(Nc2nc(C)c(-c3nc4c(C)nccc4s3)c(N[C@@H]3C[C@H](C(C)(C)O)[C@@H](O)[C@H]3O)n2)CCCCC1` [Example 5198], the EC90 (EC90 given as numeric bound) is greater than 1000 nM.

For `Cc1nc(NCC2CC2)nc(NC2(CO)CCCCC2)c1-c1nc2c(C)nccc2s1` [Example 5199], the EC90 (EC90 range) is less than 500 nM.

As to `COCCNc1nc(C)c(-c2nc3c(C)nccc3s2)c(NC2(CO)CCCCC2)n1` [Example 5200], under “EC90 range”, the EC90 was less than 500 nM.

As to `COCC1(Nc2nc(NCC3CC3)nc(C)c2-c2nc3c(C)nccc3s2)CCCCC1` [Example 5201], the EC90 (EC90 range) is less than 500 nM.

For the compound `Cc1nc(NC(=N)NCC2CC2)nc(N[C@@H]2C[C@H](C(C)(C)O)[C@@H](O)[C@H]2O)c1-c1nc2c(C)nccc2s1` [Example 5202], the EC90 (EC90 range) was greater than 25000 nM.

`Cc1nc(N[C@H](C)c2c(F)c(F)c(C)c(F)c2F)nc(N[C@@H]2C[C@H](CS(=O)(=O)c3ccc(F)cc3)[C@@H](O)[C@H]2O)c1-c1nc2c(C3CC3)nccc2s1` [Example 5203]: the EC90 (EC90 range) lay within 500 to 5000 nM.

For the compound `Cc1nc(N[C@H](C)c2c(F)c(F)c(C)c(F)c2F)nc(N[C@@H]2C[C@H](C(C)(C)O)[C@@H](O)[C@H]2O)c1-c1nc2c(C)nccc2s1` [Example 5204], the EC90 (EC90 range) is less than 500 nM.

Regarding `Cc1nc(N[C@H](C)c2c(F)c(F)c(C)c(F)c2F)nc(N[C@@H]2C[C@H](CS(C)(=O)=O)[C@@H](O)[C@H]2O)c1-c1nc2c(C3CC3)nccc2s1` [Example 5205], where the note is “EC90 range”, the EC90 is less than 500 nM.

Turning to `Cc1nc(NCc2c(F)cccc2F)nc(N[C@@H]2C[C@H](COc3c(F)cccc3F)[C@@H](O)[C@H]2O)c1-c1nc2c(C)nccc2s1` [Example 5206], where the note is “EC90 range”, the EC90 was less than 500 nM.

Regarding `Cc1nc(N[C@H](C)C2CC2)nc(N[C@@H]2C[C@H](COc3c(F)cccc3F)[C@@H](O)[C@H]2O)c1-c1nc2c(C)nccc2s1` [Example 5207], the EC90 (EC90 range) is less than 500 nM.

For `Cc1nc(NCCCOCC(F)(F)F)nc(N[C@@H]2C[C@H](C(C)(C)O)[C@@H](O)[C@H]2O)c1-c1nc2c(C)nccc2s1` [Example 5208], the EC90 (EC90 range) was less than 500 nM.

Turning to `Cc1nc(NCc2c(F)cccc2F)nc(N[C@@H]2C[C@H](CS(=O)(=O)c3cc(F)cc(F)c3)[C@@H](O)[C@H]2O)c1-c1nc2c(N)nccc2s1` [Example 5209], the EC90 (EC90 range) was less than 500 nM.

Regarding `Cc1nc(NCC(F)(F)C(F)(F)C(F)(F)F)nc(N[C@@H]2C[C@H](C(C)(C)O)[C@@H](O)[C@H]2O)c1-c1nc2c(N)nccc2s1` [Example 5210], the EC90 (EC90 range) is less than 500 nM.

As to `Cc1nc(N)nc(N[C@@H]2C[C@H](CS(=O)(=O)c3cc(F)cc(F)c3)[C@@H](O)[C@H]2O)c1-c1nc2c(N)nccc2s1` [Example 5211], the EC90 (EC90 range) is less than 500 nM.

On to `Cc1nc(N)nc(N[C@@H]2C[C@H](COc3c(F)cccc3F)[C@@H](O)[C@H]2O)c1-c1nc2c(C)nccc2s1` [Example 5212], for which, for the setting “EC90 range”, the EC90 was less than 500 nM.

In the case of `Cc1nc(NCC(F)(F)C(F)(F)F)nc(N[C@@H]2C[C@H](COc3c(F)cccc3F)[C@@H](O)[C@H]2O)c1-c1nc2c(C)nccc2s1` [Example 5213], the EC90 (EC90 range) is less than 500 nM.

Turning to `COCCNc1nc(C)c(-c2nc3c(C)nccc3s2)c(N2C[C@H]3C[C@@H]2[C@H](O)[C@@H]3O)n1` [Example 5214], the EC90 (EC90 given as numeric bound) was greater than 1000 nM.

On to `COCCNc1nc(C)c(-c2nc3c(C)nccc3s2)c(NC2(C)CCC2)n1` [Example 5215], for which the EC90 (EC90 range) is less than 500 nM.

On to `Cc1nc(NCc2c(F)cccc2F)nc(NC2(C)CCC2)c1-c1nc2c(C)nccc2s1` [Example 5216], for which, under “EC90 range”, the EC90 is less than 500 nM.

Consider `CO[C@H]1COC[C@@H]1Nc1nc(C)c(-c2nc3c(C)nccc3s2)c(N[C@@H]2C[C@H](C(C)(C)O)[C@@H](O)[C@H]2O)n1` [Example 5218], for which the EC90 (EC90 range) is less than 500 nM.

Regarding `Cc1nc(NCCO)nc(NC2(C)CCC2)c1-c1nc2c(C)nccc2s1` [Example 5219], the EC90 (EC90 range) was less than 500 nM.

Take `Cc1nc(NCC(F)(F)C(F)(F)F)nc(NC2(C)CCC2)c1-c1nc2c(C)nccc2s1` [Example 5220]: for the setting “EC90 range”, the EC90 is 500 to 5000 nM.

For `Cc1nc(NCC(C)(F)F)nc(N[C@@H]2C[C@H](C(C)(C)O)[C@@H](O)[C@H]2O)c1-c1nc2c(C)nccc2s1` [Example 5221], for the setting “EC90 range”, the EC90 was less than 500 nM.

Consider `Cc1nc(NCC2(O)CCCC2)nc(NC2(C)CCC2)c1-c1nc2c(C)nccc2s1` [Example 5222], for which the EC90 (EC90 range) is less than 500 nM.

As for `Cc1nc(NCC(F)(F)C(F)(F)F)nc(N[C@@H]2C[C@H](CS(C)(=O)=O)[C@@H](O)[C@H]2O)c1-c1nc2c(C3CC3)nccc2s1` [Example 5223], the EC90 (EC90 range) is less than 500 nM.

`Cc1nc(NCC(F)(F)C(F)(F)F)nc(N[C@@H]2C[C@H](CO)[C@@H](O)[C@H]2O)c1-c1nc2c(C3CC3)nccc2s1` [Example 5224]: where the note is “EC90 range”, the EC90 is less than 500 nM.

For the compound `Cc1nc(NCC(F)(F)C(F)(F)F)nc(N[C@@H]2C[C@H](CS(=O)(=O)c3ccc(F)cc3)[C@@H](O)[C@H]2O)c1-c1nc2c(C3CC3)nccc2s1` [Example 5225], the EC90 (EC90 range) is less than 500 nM.
